Values of other authors, collected in patent US11833118B2 (priority 2016, dated 2023).

How the values were obtained:
[1] = not given; remark: listed apart in the source

Row | Compound | crossing of the blood-brain barrier relative to Δ9THC (in vivo) | psychoactivity relative to Δ9THC (man) | Vapor Pressure at 25° C. [1] [mm Hg] | Vapor Pressure at 53.8° C. [1] [mm Hg]
1 | CCCCCc1cc(O)c2c(c1)OC(C)(C)[C@@H]1CCC(CO)=C[C@@H]21 [11-hydroxy-Δ9THC] | more rapidly crosses the blood-brain barrier | more psychoactive than Δ9THC | – | –
2 | O [Water] | – | – | 23.8 | 111.4
3 | C=C(C)[C@H]1CC=C(C)CC1 [d-Limonene] | – | – | 2.0 | 10
